The structures appear in SMILES notation.

What is called Inhibition is how much of the control response was suppressed. The low end stands for a response near the control, the high end for a response far below the control. Broadly, the inhibition is the drop in the measured response relative to a control, in per cent. Lower therefore signals a response near the control.

Holding throughout (format): functional
One assay is filed under the species Sus scrofa. In words: Inhibitory activity against tubulin polymerization at 20 uM.
Assay [1] relates to HL-60. The experiment in a line: Cell growth-inhibitory activity toward human leukemia cell line HL60 at 6 uM concentration.
The test system of assay [2] is HL-60. In words: Cell growth-inhibitory activity toward human leukemia cell line HL60 at 10 uM concentration.
In assay [3] the test system is HL-60. The experiment in a line: Cell growth-inhibitory activity toward human leukemia cell line HL60 at 3 uM concentration.

Turning to `O=C1CCC(N2C(=O)c3ccccc3C2=O)C(=O)N1` (stereo not given) [THALIDOMIDE], in the assay filed under Sus scrofa, the Inhibition is given as <10%.
For `Cc1cccc(C)c1N1C(=O)c2ccc(O)cc2C1=O`, the inhibition at 6 µM in the assay with HL-60 [1] is ~0%. Further, the inhibition at 10 µM in the assay on HL-60 [2] was 6%. Further, the Inhibition in the assay listed under Sus scrofa is <10%. Moreover, the inhibition at 3 µM in the assay with HL-60 [3] is ~0%.
For the molecule `CC(C)c1cccc(C(C)C)c1N1C(=O)c2cccc([N+](=O)[O-])c2C1=O`, in the assay with HL-60 [1], the inhibition at 6 µM is ~0%. Further, the inhibition at 10 µM in the assay on HL-60 [2] is ~0%. Also, the Inhibition in the assay listed under Sus scrofa is given as <10%. The inhibition at 3 µM in the assay with HL-60 [3] is ~0%.
On to `Cc1cccc(C)c1N1C(=O)c2cccc(O)c2C1=O`, for which the inhibition at 6 µM with HL-60 [1] was ~0%. Also, in the assay with HL-60 [2], the inhibition at 10 µM was ~0%. Also, the inhibition at 3 µM with HL-60 [3] was ~0%.
Consider `CC(C)c1cccc(C(C)C)c1N1C(=O)c2cccc(N)c2C1=O`, for which, in the assay with HL-60 [1], the inhibition at 6 µM is ~0%. Also, the inhibition at 10 µM in the assay on HL-60 [2] was ~0%. The Inhibition in the assay filed under Sus scrofa is given as <10%. In addition, the inhibition at 3 µM with HL-60 [3] is ~0%.
As to `CC(C)c1cccc(C(C)C)c1N1C(=O)c2cccc(O)c2C1=O`, the inhibition at 6 µM in the assay with HL-60 [1] was ~0%. In addition, testing at 10 µM in the assay with HL-60 [2] gave an inhibition of 8%. This molecule also registered an Inhibition in the assay filed under Sus scrofa of 7%. Further, the inhibition at 3 µM with HL-60 [3] is ~0%.
On to `O=C1c2cccc(O)c2C(=O)N1c1ccccc1`, for which the inhibition at 6 µM with HL-60 [1] was ~0%. For the same molecule, in the assay on HL-60 [2], the inhibition at 10 µM was ~0%. Also, the inhibition at 3 µM in the assay with HL-60 [3] was ~0%.
Regarding `O=C1c2ccccc2C(=O)N1c1ccccc1` [N-PHENYL-PHTHALIMIDE], the inhibition at 6 µM in the assay on HL-60 [1] was ~0%. The inhibition at 10 µM in the assay on HL-60 [2] was ~0%. Moreover, the inhibition at 3 µM in the assay on HL-60 [3] is ~0%.
As for `O=C1c2ccc(O)cc2C(=O)N1c1ccccc1`, the inhibition at 6 µM in the assay with HL-60 [1] is < 5%. In addition, the inhibition at 10 µM in the assay on HL-60 [2] amounted to 34%. Also, in the assay filed under Sus scrofa, the Inhibition is on record as <10%. In addition, the inhibition at 3 µM in the assay on HL-60 [3] was ~0%.
In the assay listed under Sus scrofa, `COc1cc2c(c(OC)c1OC)-c1ccc(OC)c(=O)cc1[C@@H](NC(C)=O)CC2` [COLCHICINE] yielded an Inhibition of 78%.
`CC(C)c1cccc(C(C)C)c1N1C(=O)c2ccc(O)cc2C1=O` yielded an inhibition at 6 µM in the assay on HL-60 [1] of 72%. Moreover, the inhibition at 10 µM in the assay on HL-60 [2] was ~100%. Moreover, the Inhibition in the assay listed under Sus scrofa is <83%. In addition, the inhibition at 3 µM in the assay on HL-60 [3] came to 6%.
Turning to `CC(C)c1cccc(C(C)C)c1N1C(=O)c2ccc(N)cc2C1=O`, the inhibition at 6 µM with HL-60 [1] is < 5%. This molecule also gave an inhibition at 10 µM in the assay with HL-60 [2] of 23%. The molecule further returned an Inhibition in the assay listed under Sus scrofa of 81%. Moreover, the inhibition at 3 µM with HL-60 [3] is ~0%.
Regarding `Cc1cccc(C)c1N1C(=O)c2ccccc2C1=O`, in the assay on HL-60 [1], the inhibition at 6 µM is ~0%. Also, in the assay with HL-60 [2], the inhibition at 10 µM is ~0%. Further, the inhibition at 3 µM with HL-60 [3] is ~0%.
For the molecule `CC(C)c1cccc(C(C)C)c1N1C(=O)c2ccc([N+](=O)[O-])cc2C1=O`, the inhibition at 6 µM in the assay with HL-60 [1] is < 5%. For the same molecule, the inhibition at 10 µM with HL-60 [2] turned out to be 16%. Further, the Inhibition in the assay listed under Sus scrofa is listed as <10%. Besides, in the assay on HL-60 [3], the inhibition at 3 µM is ~0%.
For `CC(C)c1cccc(C(C)C)c1N1C(=O)c2ccccc2C1=O` the same measures were ~0%, < 5%, 7% and ~0%.

Source of the values: ChEMBL document CHEMBL1140361, “Tubulin-polymerization inhibitors derived from thalidomide” (2005).
